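These data come from cells grown in 96-well plates and exposed to compound for 48 hours at five concentrations. GI50 is the concentration that inhibits growth by half. TGI is the concentration that stops growth completely.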
Experiments:
Assay in all cases: NCI anticancer screen, dose series, 48 h
786-0 renal = system: 786-0 renal
A498 renal = system: A498 renal
A549 NSCLC = system: A549 NSCLC
ACHN renal = system: ACHN renal
BT-549 breast = system: BT-549 breast
CAKI-1 renal = system: CAKI-1 renal
CCRF-CEM leukemia = system: CCRF-CEM leukemia
COLO 205 colon = system: COLO 205 colon
DU-145 prostate = system: DU-145 prostate
EKVX NSCLC = system: EKVX NSCLC
HCC-2998 colon = system: HCC-2998 colon
HCT-116 colon = system: HCT-116 colon
HCT-15 colon = system: HCT-15 colon
HL-60(TB) leukemia = system: HL-60(TB) leukemia
HOP-62 NSCLC = system: HOP-62 NSCLC
HOP-92 NSCLC = system: HOP-92 NSCLC
HS 578T breast = system: HS 578T breast
HT29 colon = system: HT29 colon
IGROV1 ovarian = system: IGROV1 ovarian
K-562 leukemia = system: K-562 leukemia
KM12 colon = system: KM12 colon
LOX IMVI melanoma = system: LOX IMVI melanoma
M14 melanoma = system: M14 melanoma
MALME-3M melanoma = system: MALME-3M melanoma
MCF7 breast = system: MCF7 breast
MDA-MB-231 breast = system: MDA-MB-231 breast
MDA-MB-435 = system: MDA-MB-435
MOLT-4 leukemia = system: MOLT-4 leukemia
NCI-H226 lung = system: NCI-H226 lung
NCI-H23 lung = system: NCI-H23 lung
NCI-H460 lung = system: NCI-H460 lung
NCI-H522 lung = system: NCI-H522 lung
NCI/ADR-RES ovarian = system: NCI/ADR-RES ovarian
OVCAR-3 ovarian = system: OVCAR-3 ovarian
OVCAR-4 ovarian = system: OVCAR-4 ovarian
OVCAR-5 ovarian = system: OVCAR-5 ovarian
OVCAR-8 ovarian = system: OVCAR-8 ovarian
PC-3 prostate = system: PC-3 prostate
RPMI-8226 leukemia = system: RPMI-8226 leukemia
RXF 393 renal = system: RXF 393 renal
SF-268 CNS = system: SF-268 CNS
SF-295 CNS = system: SF-295 CNS
SF-539 CNS = system: SF-539 CNS
SK-MEL-2 melanoma = system: SK-MEL-2 melanoma
SK-MEL-5 melanoma = system: SK-MEL-5 melanoma
SK-OV-3 ovarian = system: SK-OV-3 ovarian
SN12C renal = system: SN12C renal
SNB-19 CNS = system: SNB-19 CNS
SNB-75 CNS = system: SNB-75 CNS
SR leukemia = system: SR leukemia
SW-620 colon = system: SW-620 colon
T-47D breast = system: T-47D breast
TK-10 renal = system: TK-10 renal
U251 CNS = system: U251 CNS
UACC-257 melanoma = system: UACC-257 melanoma
UACC-62 melanoma = system: UACC-62 melanoma
UO-31 renal = system: UO-31 renal

## Clc1ccc(CNc2ccc3nc(CCC4CCCCC4)[nH]c3c2)cc1
786-0 renal
  GI50: 2.03 µM
  TGI: 4.4 µM
A498 renal
  GI50: 1.36 µM
  TGI: 3.4 µM
A549 NSCLC
  GI50: 3.14 µM
  TGI: > 100 µM
ACHN renal
  GI50: 3.03 µM
  TGI: 11.2 µM
BT-549 breast
  GI50: 2.14 µM
  TGI: 7.24 µM
CAKI-1 renal
  GI50: 2.46 µM
  TGI: 6.53 µM
CCRF-CEM leukemia
  GI50: 3.27 µM
  TGI: > 100 µM
COLO 205 colon
  GI50: 1.93 µM
  TGI: 3.73 µM
DU-145 prostate
  GI50: 3.7 µM
  TGI: 23.2 µM
EKVX NSCLC
  GI50: 2.2 µM
  TGI: 7.06 µM
HCC-2998 colon
  GI50: 1.81 µM
  TGI: 3.41 µM
HCT-116 colon
  GI50: 1.93 µM
  TGI: 4.96 µM
HCT-15 colon
  GI50: 1.83 µM
  TGI: 5.64 µM
HL-60(TB) leukemia
  GI50: 2.03 µM
  TGI: 4.7 µM
HOP-62 NSCLC
  GI50: 2.01 µM
  TGI: 4.16 µM
HOP-92 NSCLC
  GI50: 1.47 µM
  TGI: 3.8 µM
HS 578T breast
  GI50: 2.12 µM
  TGI: 6.37 µM
HT29 colon
  GI50: 1.9 µM
  TGI: 4.66 µM
IGROV1 ovarian
  GI50: 3 µM
  TGI: 36.9 µM
K-562 leukemia
  GI50: 2.09 µM
  TGI: 5.02 µM
KM12 colon
  GI50: 2.49 µM
  TGI: 7 µM
LOX IMVI melanoma
  GI50: 1.7 µM
  TGI: 3.1 µM
M14 melanoma
  GI50: 1.93 µM
  TGI: 3.95 µM
MALME-3M melanoma
  GI50: 1.77 µM
  TGI: 4.08 µM
MCF7 breast
  GI50: 1.8 µM
  TGI: 4.63 µM
MDA-MB-231 breast
  GI50: 1.64 µM
  TGI: 3.18 µM
MDA-MB-435
  GI50: 1.88 µM
  TGI: 4.1 µM
MOLT-4 leukemia
  GI50: 2.52 µM
  TGI: 8.23 µM
NCI-H226 lung
  GI50: 1.76 µM
  TGI: 4.16 µM
NCI-H23 lung
  GI50: 2.07 µM
  TGI: 4.94 µM
NCI-H460 lung
  GI50: 2.15 µM
  TGI: 4.82 µM
NCI-H522 lung
  GI50: 1.71 µM
  TGI: 3.95 µM
NCI/ADR-RES ovarian
  GI50: 2.5 µM
  TGI: 7.97 µM
OVCAR-3 ovarian
  GI50: 3.02 µM
  TGI: 12.2 µM
OVCAR-4 ovarian
  GI50: 3.5 µM
  TGI: 90.7 µM
OVCAR-5 ovarian
  GI50: 2.39 µM
  TGI: 6.68 µM
OVCAR-8 ovarian
  GI50: 3.18 µM
  TGI: 19.9 µM
PC-3 prostate
  GI50: 2.66 µM
  TGI: 10.9 µM
RPMI-8226 leukemia
  GI50: 2.09 µM
  TGI: 5.02 µM
RXF 393 renal
  GI50: 1.97 µM
  TGI: 4.95 µM
SF-268 CNS
  GI50: 3.13 µM
  TGI: 29.9 µM
SF-295 CNS
  GI50: 1.96 µM
  TGI: 4.07 µM
SF-539 CNS
  GI50: 2.14 µM
  TGI: 4.83 µM
SK-MEL-2 melanoma
  GI50: 2.24 µM
  TGI: 5.12 µM
SK-MEL-5 melanoma
  GI50: 1.69 µM
  TGI: 3.09 µM
SK-OV-3 ovarian
  GI50: 2.32 µM
  TGI: 5.95 µM
SN12C renal
  GI50: 2.76 µM
  TGI: 11.5 µM
SNB-19 CNS
  GI50: 3.12 µM
  TGI: 14.8 µM
SNB-75 CNS
  GI50: 1.91 µM
  TGI: 5.81 µM
SR leukemia
  GI50: 3.15 µM
  TGI: 9.92 µM
SW-620 colon
  GI50: 1.78 µM
  TGI: 3.7 µM
T-47D breast
  GI50: 2.24 µM
  TGI: 6.55 µM
TK-10 renal
  GI50: 2.61 µM
  TGI: 7.87 µM
U251 CNS
  GI50: 1.73 µM
  TGI: 3.47 µM
UACC-257 melanoma
  GI50: 2.3 µM
  TGI: 6.3 µM
UACC-62 melanoma
  GI50: 1.76 µM
  TGI: 3.41 µM
UO-31 renal
  GI50: 1.49 µM
  TGI: 3.29 µM

— PubChem BioAssay (NCI)
